Measurements: PMC11640942, “The Role of Medium Polarity in the Efficiency of Albumin Binding with Hydrophobic Ligands: Experimental Studies and a Molecular Dynamics Investigation” (International Journal of Molecular Sciences, 2024)
Values after ≈ are worked out from the molar mass of the structure shown. Read-outs that look alike come from different tables or passages of the source.

Legend:
[1] = molecular target: T1, human serum albumin (HSA) (Homo sapiens, UniProt P02768); assay: Binding constants of DPH and OG with HSA by increase in the probe's fluorescence (titration with HSA)
T1 construct: purchased Sigma-Aldrich Chemical Co. (St. Louis, MO, USA)
Method: The slit widths were set at 10 nm for both excitation and emission wavelengths, and a 3 mL quartz cuvette with a 10 mm path length and that was magnetically stirred was used during the measurements. The experiments were performed in pure water or solutions containing 1.0 mol L^−1 NaCl, 10 and 20% (w/w) of 1,4-dioxane. […] After each addition, the mixtures were incubated for 2 min before the fluorescence measurements. Equation (2) was applied to determine the binding constant. […] The association constant (Ka) was calculated as 1/Kd. The same experimental protocol was used to determine the binding constant with OG. In this case, the fixed amount of OG was 5.0 µmol L^−1 and HSA 0–25.0 µmol L^−1. The excitation was set at 305 nm, and the emission was 320 to 450 nm. The non-linear fitting was obtained using the GraphPad Prism version 8.00 for Windows (GraphPad Software, San Diego, CA, USA). (2) F−F0/F∞−F0=L+[P]+Kd−L+[P]+Kd)^2−4[L][P]/2[L]

[2] = molecular target: T1, human serum albumin (HSA); assay: Time-resolved fluorescence (average lifetime) of DPH, free and complexed with HSA
Method: The measurements were performed using a mini-tau filter-based fluorescence lifetime spectrometer coupled to a Time-Correlated Single Photon Counting (TCSPC) system (Edinburgh Instruments, Livingston, UK). The excitation was performed using a 370 ± 10 nm picosecond pulsed laser, and the emission was using a […] interference filter. The fluorescence decays were fitted using the multi-exponential decay model, Equation (5), and the average lifetime <τ> was calculated using Equation (6). The quality of the fit was assessed by χ^2 values and residuals. […] (5) IT=∑i=1nfie^−T/τi (6) <τ>=∑i=1nfiτi

[3] = molecular target: T1, human serum albumin (HSA); assay: Binding of quercetin or rutin with HSA by quenching of the protein's intrinsic fluorescence; conditions: pure water vs 20% 1,4-dioxane, fit to Equation (3)
Method: The interactions between HSA and quercetin or rutin were evaluated by quenching the intrinsic fluorescence of the protein. The excitation was set at 295 nm, and the emission at 310 to 410 nm. […] After each addition of the ligands, the mixtures were incubated for 2 min before the fluorescence measurements. […] Since a 1:1 complex was assumed, n was set as 1. Therefore, Kd and Φ were treated as the fitting parameters in the non-linear least-squares analysis. Before determining the binding constants, the fluorescent intensities were corrected for the inner filter effect (Equation (4)) caused by the attenuation of the excitation and emission signals provoked by the light absorption of the flavonoids. Fcorr and Fobs are the corrected and observed fluorescence. Abex and Abem are the absorptions of the mixture at excitation and emission wavelength, respectively. The absorbance spectra were measured using a Perkin Elmer Lambda 35 UV-visible spectrophotometer (Shelton, CT, USA), and the fluorescence spectra were obtained using a Perkin Elmer LS 55 spectrofluorometer (Shelton, CT, USA). (3) Fratio=1-Φ[([…])/2nP0] (4) Fcorr=Fobs×10^Abex+Abem/2

[4] = cited from earlier work
[5] = cited from earlier work; remark: listed apart in the source
[6] = 1,4-dioxane 0% (pure water), 25 °C, fit to Equation (2), read-out: association constant Ka (converted)
[7] = 1,4-dioxane 20% w/w, 25 °C, fit to Equation (2), read-out: association constant Ka (converted)

T1 sequence (P02768 25-609): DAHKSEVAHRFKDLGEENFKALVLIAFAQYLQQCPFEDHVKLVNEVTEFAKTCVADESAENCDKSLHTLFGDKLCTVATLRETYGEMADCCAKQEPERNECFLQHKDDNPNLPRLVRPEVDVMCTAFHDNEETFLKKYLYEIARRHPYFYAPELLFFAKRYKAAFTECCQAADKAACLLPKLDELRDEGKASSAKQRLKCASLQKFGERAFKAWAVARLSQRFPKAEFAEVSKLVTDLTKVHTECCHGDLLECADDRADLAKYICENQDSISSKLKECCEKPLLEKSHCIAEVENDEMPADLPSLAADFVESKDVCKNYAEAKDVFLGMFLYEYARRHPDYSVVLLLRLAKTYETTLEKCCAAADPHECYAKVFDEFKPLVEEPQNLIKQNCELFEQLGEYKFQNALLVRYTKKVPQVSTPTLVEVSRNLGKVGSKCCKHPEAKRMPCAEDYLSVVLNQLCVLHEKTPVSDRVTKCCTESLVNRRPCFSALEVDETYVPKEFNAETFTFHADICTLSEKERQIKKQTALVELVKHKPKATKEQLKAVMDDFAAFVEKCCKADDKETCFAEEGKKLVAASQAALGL

C(=CC=Cc1ccccc1)C=Cc1ccccc1 [DPH, 1,6-diphenyl-1,3,5-hexatriene]
Kd [1, 6]: 0.505 µM
Kd ([1]; 1,4-dioxane 10% w/w, 25 °C, fit to Equation (2), read-out: association constant Ka (converted)): 1.89 µM
Kd [1, 7]: 5.88 µM
HSA concentration needed to reach saturation ([1]; 1,4-dioxane (20%)): 10 µM
Kd ([1]; Figure 4, printed as (10%) 1,4-dioxane, read-out: Ka (means and SD of triplicates) (converted)): 2.22 µM
Kd ([1]; Figure 4, printed as (20%) 1,4-dioxane, read-out: Ka (means and SD of triplicates) (converted)): 0.485 µM
Kd ([1]; NaCl 1.0 mol L^−1 (dielectric constant 69.3), read-out: binding constant Ka (converted)): 4.35 µM
lower HSA concentration at saturation when the solvent was absent ([1]; no solvent vs 1,4-dioxane): 5 fold
HSA concentration needed to reach saturation ([1]; pure water): 2.0 µM
Kd ([1]; pure water (dielectric constant 80.3), NaCl comparison experiment, read-out: binding constant Ka (converted)): 1.01 µM
average fluorescence lifetime ([2]; 20% 1,4-dioxane with HSA added): 7.1 nanoseconds
average fluorescence lifetime ([2]; 20% 1,4-dioxane, no protein): 2.6 nanoseconds
average fluorescence lifetime ([2]; pure 1,4-dioxane): 7.8 nanoseconds

O=c1c(O)c(-c2ccc(O)c(O)c2)oc2cc(O)cc(O)c12 [quercetin]
effect of 1,4-dioxane on binding strength [3]: decreased
water solubility [4]: 60 µg/mL (≈ 199 µM)
logP [5]: 0.35

C[C@@H]1O[C@@H](OC[C@H]2O[C@@H](Oc3c(-c4ccc(O)c(O)c4)oc4cc(O)cc(O)c4c3=O)[C@H](O)[C@@H](O)[C@@H]2O)[C@H](O)[C@H](O)[C@H]1O [rutin]
effect of 1,4-dioxane on binding strength [3]: not
logP [5]: −2.28

CCCCCCCCOC(=O)c1cc(O)c(O)c(O)c1 [OG, octyl gallate]
Kd [1, 6]: 0.192 µM
Kd [1, 7]: 4.55 µM
increase of binding constant in pure water compared to 1,4-dioxane ([1]; pure water vs 20% 1,4-dioxane): 25 fold
